Measured values as given in ChEMBL document CHEMBL1921683, “Radiosynthesis of three [11C]ureido-substituted benzenesulfonamides as PET probes for carbonic anhydrase IX in tumors” (Bioorg Med Chem Lett, 2011).

Test: Chemical stability of the compound assessed as decomposition of the compound
Type: physicochemical

Stability: Unstable
Compound: N#Cc1ccccc1N[11C](=O)Nc1ccc(S(N)(=O)=O)cc1
